Converted amounts (≈) assume the structure as drawn.
Columns and labels:
S. aureus = assay: Antibacterial activity on S. aureus of oxidase/peroxidase with enhancing agents; type: cell-based, Staphylococcus aureus; settings: for antibacterial activity of compositions with enhancing agent, substrate and enzyme: FIG. 2; for enhancing activity on glucose/peroxidase antibacterial activity: present experimental setting; for Enhancing effect on oxidase/peroxidase assay: antimicrobial effect; for bactericidal capacity when mixed with the enzyme-substrate solution / effect on cell survival of the separate systems: FIG. 1; for bactericidal capacity when mixed with the enzyme-substrate solution: enhancing agent and ES; for effect on cell survival of the separate systems: enhancing agent only
Method: Bacterial cells (S. aureus) were plated on Trypticase Soybean Agar plates (Becton Dickinson) and incubated overnight at 37° C. Cells were recovered from plates and mixed with NaCl-peptone broth buffer (Merck). The amount of medium is adjusted to give a bacterial suspension with a cell density of OD600=0.25 for bacteria.
For the examples described in the following examples, a fresh dilution of 0.25% (v/v) enzyme-substrate (Biovert™) stock solutions were prepared for each independent test. The Biovert™ enzyme stock solution contains 1527 U/ml lactoperoxidase; 2016 U/ml glucose oxidase; the Biovert™ substrate stock solution comprises: 55% (w/v) glucose, 0.51% (w/v) KSCN, 0.73% (w/v) KI.
In order to assess the synergistic action of the enhancing agent on the enzyme-substrate enhancing agent, the concentration of enzyme-substrate was adjusted to obtain conditions wherein the oxidase/peroxidase in a hydrogel performs limited but measurable antibacterial activity. The above mentioned (0.25% (v/v)) solution has accordingly been further diluted to 0.017% (v/v).
(§1) A 0.33% (w/v) Na-alginaat (Kelset), 0.66% (v/v) PEG400 gel solution was prepared in water, autoclaved and subsequently cooled to room temperature.
(§2) For the antibacterial assay the following components are mixed: 100 μl of bacterial cell suspension, 100 μl enzyme-substrate master solution (0.25%), 1 g (=1 ml) gel solution, 0.1-1 mg enhancing agent, 300 μl milliQ water. Final concentrations of the enzyme/substrate in the reaction mixture are 0.015 U/ml glucose oxidase, 0.011 U/ml lactoperoxidase, 0.00007% (w/v) potassium thiocyanate, 0.0001% (w/v) potassium iodide, 0.0076% glucose, and 0.066-0.66 mg/ml enhancing agent.

[1] = cited from earlier work
[2] = DPPH-radical bleaching assay; settings: for Antioxidant properties: DPPH assay: 5 mMole/liter in 1-octanol; for potency as reducer / antioxidant efficiency: FIG. 4
Method: DPPH (1,1-DiPhenyl-2-PicrylHydrazyl) is a cell-permeable, stable free radical that acts as a hydrogen radical scavenger, and is used as a screening tool for detecting free radical scavenging activity of antioxidants. When a radical solution is brought into contact with an antioxidant, the radical-molecule is reduced and thereby looses its characteristic purple colour. This “bleaching” can be monitored by spectrophotometric analysis.
A DPPH-radical solution (15 mg/ml) was prepared freshly in 1-octanol (Sigma) and 900 μl aliquots were transferred to 2 ml spectrophotometer cuvettes. 100 μl of 50 mMole/liter solutions of enhancing agents (dissolved in 1-octanol) were added to the solution (final concentration of the enhancing agents is 5 mMole/liter). Spectrophotometric analysis of the samples was carried out within 5 minutes, in order to prevent quenching caused by free (e.g. air born) radicals.

Beta-carotene assay = settings: for Antioxidant properties: Beta-carotene assay: 5 mMole/liter in 1-octanol; for antioxidant performance in the beta carotene bleaching assay: FIG. 3
Method: In this assay, the antioxidant activity of a component is assessed by its ability to prevent bleaching of a beta-carotene solution by radicals formed upon illumination.
A beta-carotene solution (20 mg/ml) was prepared freshly in 1-octanol (Sigma) and 900 μl aliquots were transferred to 2 ml spectrophotometer cuvettes. 100 μl of 50 mMole/liter solutions of enhancing agents of the invention (dissolved in 1-octanol) were added to the solution (final concentration of the enhancing agents is 5 mMole/liter). The solutions were illuminated for up to 5 hours and spectrophotometric analysis was carried out at indicated time points.

[3] = tested on: MRSA (methicillin resistant S. aureus) bacteria; assay: Antibacterial activity on MRSA of oxidase/peroxidase with enhancing agents; type: cell-based, Staphylococcus aureus; settings: FIG. 5
Method: The effect of vanillin and guaiacol on the peroxidase/oxidase activity was assayed on MRSA (methicillin resistant S. aureus) bacteria using growth conditions and assay conditions as described in example 1.

E. coli = assay: Antibacterial activity on E. coli of enhancing agents and oxidase/peroxidase; type: cell-based, Escherichia coli; settings: FIG. 7; 6 hours of incubation
Method: Experiments using the conditions described in Example 1 and 2 were performed with Gram-negative bacteria (E. coli).

Candida albicans = assay: Growth retardation of Candida albicans in SD broth with enzyme/substrate system; type: cell-based; settings: FIG. 9; 0.02% dilution of enzyme/substrate
Method: A yeast cell culture (A600=0.05) was grown in Sabouraud Dextrose (SD) broth (Difco™, Becton Dickinson) in the presence of a 0.02% dilution (suboptimal concentration) of the enzyme/substrate system described in example 1.

[4] = Dispersion or dissolution in the hydrophilic gel setting; type: physicochemical; settings: present experimental setting, hydrogel
Method: as §1, §2

Row | Compound | Solubility in water [1] [µg/mL] | Enhancing effect on oxidase/peroxidase assay (S. aureus) | Antioxidant properties: DPPH assay [2] | Antioxidant properties: Beta-carotene assay (Beta-carotene assay) | further results
1 | O=Cc1ccc(O)c(O)c1 [3,4 dihydroxybenzaldehyde, reference compound] |  |  |  |  | antibacterial activity of compositions with enhancing agent, substrate and enzyme (S. aureus): less pronounced
2 | N[C@@H](Cc1c[nH]c2ccc(O)cc12)C(=O)O [5-hydroxy-tryptophane, reference compound] |  |  |  |  | enhancing activity on glucose/peroxidase antibacterial activity (S. aureus): did not show an enhancing activity
3 | COc1cc(C(C)=O)ccc1O [Apocynin, 1-(4-hydroxy-3-methoxy-phenyl)ethanone] | 500 (≈ 3.01 mM) |  |  |  | 
4 | Cc1cc(C(C)(C)C)c(O)c(C(C)(C)C)c1 [BHT, di-tert-butylated hydroxytoluene, reference compound] |  | + | ++ | +++ | potency as reducer / antioxidant efficiency [2]: less potent reducers than gallic acid and propyl gallate
5 | CCOc1cc(C=O)ccc1O [Ethylvanillin, 3-ethoxy-4-hydroxy-benzaldehyde] |  | + |  |  | bactericidal capacity when mixed with the enzyme-substrate solution (S. aureus): markedly enhanced the bactericidal capacity; effect on cell survival of the separate systems (S. aureus): only moderately affected cell survival
6 | O=C(O)c1cc(O)c(O)c(O)c1 [Gallic acid, reference compound] |  | + | +++ | +++ | antibacterial activity of compositions with enhancing agent, substrate and enzyme (S. aureus): less pronounced
7 | CCOc1ccccc1O [Guaiethol, 2-ethoxyphenol] | 3100 (≈ 22.4 mM) | + | +++ | ++ | potency as reducer / antioxidant efficiency [2]: nearly as efficient as gallic acid and propyl gallate; antioxidant performance in the beta carotene bleaching assay (Beta-carotene assay): very effective
8 | COc1ccc(C=O)cc1O [Isovanilline, 3-hydroxy-4-methoxy-benzaldehyde] | 11000 (≈ 72.3 mM) | − | − | ± | antibacterial activity of compositions with enhancing agent, substrate and enzyme (S. aureus): less pronounced
9 | COc1cc(O)ccc1O [Methoxyhydroquinone, 2-methoxybenzene-1,4-diol] | 33000 (≈ 235 mM) |  |  |  | 
10 | CCCOC(=O)c1cc(O)c(O)c(O)c1 [Propylgallate, propyl gallate, reference compound] |  | ± | +++ | +++ | antibacterial activity of compositions with enhancing agent, substrate and enzyme (S. aureus): less pronounced
11 | CCOc1cc(C=O)ccc1O [Quantrovanil, 3-ethoxy-4-hydroxy-benzaldehyde] | 280 (≈ 1.68 mM) |  |  |  | 
12 | COc1cc(C(=O)O)ccc1O [Vanillic acid, 4-hydroxy-3-methoxy-benzoic acid] |  | + |  | ± | 
13 | COc1cc(C=O)ccc1O [Vanillin, 4-hydroxy-3-methoxy-benzaldehyde] |  | + | − | − | bactericidal capacity when mixed with the enzyme-substrate solution (S. aureus): markedly enhanced the bactericidal capacity; effect on cell survival of the separate systems (S. aureus): only moderately affected cell survival; potency as reducer / antioxidant efficiency [2]: performed poorly; antioxidant performance in the beta carotene bleaching assay (Beta-carotene assay): performed poorly; enhancing effect on the peroxidase/oxidase activity ([3]; ES + enhancing agent): enhancing effect; antibacterial effect of compound alone ([3]; enhancing agent alone): limited effect; antibacterial effectiveness in combination with the enzyme-substrate (E. coli): more effective than enzyme-substrate alone; suppression of fungal growth on addition to enzyme/substrate system (Candida albicans): additional suppression of the fungal growth
14 | COc1cccc(O)c1 [m-Guaiacol, 3-methoxyphenol] | 500 (≈ 4.03 mM) |  |  |  | 
15 | COc1cccc(C=O)c1O [o-vanillin, 2-hydroxy-3-methoxy-benzaldehyde] | 500 (≈ 3.29 mM) |  |  |  | 
16 | COc1cc(C=O)cc(OC)c1O [syringaldehyde] |  |  |  |  | dispersion or dissolution in hydrophilic media [4]: could not be properly dispersed or dissolved
17 | N[C@@H](Cc1ccc(O)cc1)C(=O)O [tyrosine, reference compound] |  |  |  |  | enhancing activity on glucose/peroxidase antibacterial activity (S. aureus): did not show an enhancing activity
18 | Vitamin E [reference compound] |  | − | + | + | potency as reducer / antioxidant efficiency [2]: less potent reducers than gallic acid and propyl gallate

— patent US8679526B2, “Antimicrobial peroxidase compositions” (Flen Pharma N.V., priority 2005, dated 2014)
